Earlier results in US10350288B2, “Methods and compositions for treating herpes” (Genocea Biosciences, Inc., priority 2016, dated 2019).
Read-outs that look alike come from different tables or passages of the source. Blank lines part the entries; values can stand above or below the compound they belong to.

Columns and labels:
HSV [1] = conditions: once-daily; efficacy comparable to valacyclovir twice daily for 3 days
HSV [2] = conditions: patients with genital herpes
HSV-2 [3] = conditions: human, in vivo
HSV-2 [4] = test system: HSV-2

SMILES: Cc1cccc(C)c1N(CC(=O)Nc1ccc(-c2ncon2)cc1)C(=O)C1CCS(=O)(=O)CC1 [amenamevir]
time to lesion healing shortened by (HSV [1]): 1 to 2 days

oral bioavailability: not orally bioavailable
SMILES: Nc1nc2c(ncn2CCC(CO)CO)c(=O)[nH]1 [Penciclovir, penciclovir]

SMILES: Cc1nc(N(C)C(=O)Cc2ccc(-c3ccccn3)cc2)sc1S(N)(=O)=O [Pritelivir, pritelivir]
reduction of viral shedding and lesion rate (HSV [2]): has shown efficacy

SMILES: CC(C)[C@H](N)C(=O)OCCOCn1cnc2c(=O)[nH]c(N)nc21 [valacyclovir]
reduction of transmission of HSV-2 from infected persons to uninfected partners (HSV-2 [3]): 48%
proportion of patients who remained recurrence-free (HSV-2 [4]; at 6 months, placebo 7%): 55%
proportion of patients who remained recurrence-free (HSV-2 [4]; at 12 months, placebo 4%): 34%
